These results are taken from ChEMBL document CHEMBL3046609, “Herbicidal properties of the thaxtomin group of phytotoxins” (2001).

Activity calls are given as the source filed them. The rule behind the calls is not given here.

The test system of this assay is Echinochloa crus-galli. Kind of assay: Pre-emergence herbicidal activity against Echinochloa crus-galli (barnyard grass) assessed as meristematic at 0.5 to 4 kg/ha after 16 days. The assay is classed as functional, organism-based.

Regarding `CN1C(=O)[C@](O)(Cc2cccc(O)c2)N(C)C(=O)[C@@H]1Cc1c[nH]c2cccc([N+](=O)[O-])c12` [THAXTOMIN A], the result was Active.
